Data from patent US20260216347A1, “Substituted Imidazo-Based Compounds as Ligand Directed Degraders of IRAK3” (Celgene Corporation, priority 2022, published 2026).

Columns and labels:
[1] = molecular target: T1, IRAK3 (Homo sapiens, UniProt Q9Y616); experiment: IRAK endogenous HTRF degradation assay (Total-IRAK3 HTRF kit); format: cell-based; conditions: overnight incubation, lowest percentage of protein remaining
T1 construct: IRAK Endogenous HTRF Degradation Assay; endogenous in cells
T1 sequence (Q9Y616 1-596): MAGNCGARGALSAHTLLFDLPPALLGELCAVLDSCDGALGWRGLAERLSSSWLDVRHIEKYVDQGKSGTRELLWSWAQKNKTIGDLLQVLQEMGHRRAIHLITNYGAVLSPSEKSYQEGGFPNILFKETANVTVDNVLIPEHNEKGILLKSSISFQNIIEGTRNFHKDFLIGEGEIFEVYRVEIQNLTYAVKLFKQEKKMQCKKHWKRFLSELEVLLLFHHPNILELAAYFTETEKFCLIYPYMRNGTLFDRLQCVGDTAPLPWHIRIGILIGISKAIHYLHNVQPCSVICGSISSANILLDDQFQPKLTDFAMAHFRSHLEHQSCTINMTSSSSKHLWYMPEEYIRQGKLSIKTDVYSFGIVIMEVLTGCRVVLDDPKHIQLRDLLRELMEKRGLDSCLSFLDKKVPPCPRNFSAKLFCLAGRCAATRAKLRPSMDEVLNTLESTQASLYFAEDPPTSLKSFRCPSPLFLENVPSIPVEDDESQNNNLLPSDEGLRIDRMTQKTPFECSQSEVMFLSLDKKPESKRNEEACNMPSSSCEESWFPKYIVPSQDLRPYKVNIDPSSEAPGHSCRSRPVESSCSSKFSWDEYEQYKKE
Method: Example B2. IRAK Endogenous HTRF Degradation Assay
Cells (~50 k) were plated in Cisbio 96-well low volume white plates (Cisbio: cat #66PL96005). Compounds were dissolved in DMSO and a 3-fold serial dilution was performed using a TECAN D300E. Cells were incubated with the compound overnight. Total-IRAK3 HTRF kit from Cisbio was used for degradation analysis (Cisbio: 63ADK101PEH). Cryptate and D2 antibodies were diluted in Detection buffer as per manufacturers recommendation. Then 2 μL of each solution was added to 16 μL lysate. Buffer control (lysis buffer detection buffer), Cryptate control (lysis buffer+cryptate antibody+detection buffer), and Negative control (lysis buffer+cryptate antibody+D2 antibody) were made as per manufacturers recommendation. Post incubation with antibodies the HTRF signal was measured using a Perkin Elmer Envision reader and the HTRF signal was calculated using formula: (Emission at 665 nm/Emission at 615 nm)*10,000. All HTRF values were normalized to the average value of DMSO. The average value of the DMSO control wells were set to equal 100% of the relative IRAK3 protein levels. Normalized luminescence values were plotted on a graph as a function of compound concentration. Compound concentration was plotted on the x-axis and the corresponding normalized IRAK3 protein levels on the y-axis. The EC50 value (the half-maximum effective concentration) of a compound for the degradation of the IRAK3 was calculated using a four-parameter logistic model (sigmoidal dose-response model) (FIT=(A+{(B−A)/1+[(C/x)D]})) where C is the inflection point (EC50), D is the […], and A and B are the low and high limits of the fit, respectively). The Ymin was calculated by determining the lowest percentage of target protein remaining following compound treatment. Dmax was calculated from Ymin (% Dmax=100−Ymin).
Using these assays, IC50, Dmax, EC50, and DC50 values of the following compounds were determined. Dmax is defined as the maximum percent degradation achieved and DC50 is the concentration at which 50% degradation is achieved.

[2] = molecular target: T2, IRAK3-ePL (Homo sapiens, UniProt Q9Y616); experiment: IRAK3-ePL overexpressing degradation assay (InCELL Hunter luminescence, dose response); format: cell-based; conditions: for IRAK3 ePL degradation Ymin: lowest percentage of target protein remaining following compound treatment; for DC50: read-out: IRAK3 ePL degradation EC50
T2 construct: expressed in transfected cells; host or cells: 293T CRBN OE/GSPT1 G575N KI cells, lentiviral transduction, puromycin selected
Procedure, shortened: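 Lenti-X 293T CRBN/GSPT1 G575N cells stably expressing IRAK3-ePL (5,000/well) treated overnight at 37° C with 10-point 3-fold dilutions from 10 μM, 0.2% DMSO. InCELL Hunter luminescence, background subtracted using Ataluren wells and normalized to DMSO; EC50 from four-parameter logistic fit.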

| IRAK3 HTRF degradation Ymin [1] [%] | IRAK3 ePL degradation Ymin [2] [%] | DC50 [2] [nM] | SMILES |
| --- | --- | --- | --- |
| 14. | 32 | 0.51 | Cc1cc(-c2cnc(Nc3cnn(C4CCN(CCN5CCN(c6ccc7c(C8CCC(=O)NC8=O)nn(C)c7c6)CC5)CC4)c3)c3nccn23)c(F)cc1F (stereo not drawn) [Compound 39, 3-(6-(4-(2-(4-(4-((5-(2,4-difluoro-5-methylphenyl)imdazo [1,2-a]pyrazin-8-yl)amino)-1H-pyrazol-1-yl)piperidin-1-yl)ethyl)piperazin-1-yl)-1-methyl-1H-indazol-3-yl)piperidine-2,6-dione] |
| 8.5 | 24 | 1.5 | CN1CCOc2ccc(-c3cnc(Nc4cnn([C@H]5CC[C@H](CCN6CCN(c7ccc(C8CCC(=O)NC8=O)cc7)CC6)CC5)c4)c4nccn34)cc21 (stereo partly drawn) [Compound 40] |
| 8.7 | 25 | 0.68 | Cc1cc(-c2cnc(Nc3cnn(C4CCN(CCN5CCN(c6cccc7c(C8CCC(=O)NC8=O)nn(C)c67)CC5)CC4)c3)c3nccn23)c(F)cc1F (stereo not drawn) [Compound 41, 3-(7-(4-(2-(4-(4-((5-(2,4-difluoro-5-methylphenyl)imdazo [1,2-a]pyrazin-8-yl)amino)-1H-pyrazol-1-yl)piperidin-1-yl)ethyl)piperazin-1-yl)-1-methyl-1H-indazol-3-yl)piperidine-2,6-dione] |
| 9.8 | 23 | 0.51 | COc1cc(C2CCC(=O)NC2=O)ccc1N1CCN(CCN2CCC(n3cc(Nc4ncc(-c5cc(C)c(F)cc5F)n5ccnc45)cn3)CC2)CC1 (stereo not drawn) [Compound 42, 3-(4-(4-(2-(4-(4-((5-(2,4-difluoro-5-methylphenyl)imdazo [1,2-a]pyrazin-8-yl)amino)-1H-pyrazol-1-yl)piperidin-1-yl)ethyl)piperazin-1-yl)-3-methoxyphenyl) piperidine-2,6-dione] |
| 8.1 | 26 | 0.97 | Cc1cc(-c2cnc(Nc3cnn(C4CCN(CCN5CCN(c6ccc(C7CCC(=O)NC7=O)cc6)[C@@H](C)C5)CC4)c3)c3nccn23)c(F)cc1F (stereo partly drawn) [Compound 44, 3-(4-((S)-4-(2-(4-(4-((5-(2,4-difluoro-5-methylphenyl)imdazo [1,2-a]pyrazin-8-yl)amino)-1H-pyrazol-1-yl)piperidin-1-yl)ethyl)-2-methylpiperazin-1-yl)phenyl) piperidine-2,6-dione] |
| 15 | 26 | 7.2 | Cc1cccc(-c2cnc(Nc3cnn([C@H]4CC[C@@H](CCN5CCN(c6ccc(C7CCC(=O)NC7=O)cc6)CC5)CC4)c3)c3nccn23)c1 (stereo partly drawn) [Compound 45, 3-(4-(4-(2-((cis)-4-(4-((5-(m-tolyl)imidazo [1,2-a]pyrazin-8-yl)amino)-1H-pyrazol-1-yl)cyclohexyl)ethyl)piperazin-1-yl)phenyl) piperidine-2,6-dione] |
| 9.8 | 25 | 1.3 | Cc1cc(-c2cnc(Nc3cnn(C4CCN(CCN5CCN(c6ccc(C7CCC(=O)NC7=O)cc6)[C@H](C)C5)CC4)c3)c3nccn23)c(F)cc1F (stereo partly drawn) [Compound 50, 3-(4-((R)-4-(2-(4-(4-((5-(2,4-difluoro-5-methylphenyl)imdazo [1,2-a]pyrazin-8-yl)amino)-1H-pyrazol-1-yl)piperidin-1-yl)ethyl)-2-methylpiperazin-1-yl)phenyl) piperidine-2,6-dione] |
| 9.3 | 24 | 2.5 | O=C1CCC(c2ccc(N3CCN(CCN4CCC(n5cc(Nc6ncc(-c7cc8c(cc7F)OCCN8)n7ccnc67)cn5)CC4)CC3)cc2)C(=O)N1 (stereo not drawn) [Compound 51, 3-(4-(4-(2-(4-(4-((5-(7-fluoro-3,4-dihydro-2H-benzo[b][1,4]oxazin-6-yl)imidazo[1,2-a]pyrazin-8-yl)amino)-1H-pyrazol-1-yl)piperidin-1-yl)ethyl)piperazin-1-yl)phenyl) piperidine-2,6-dione] |
| 74 | 40 | 96 | Cc1cc(-c2cnc(N(C)c3cnn(C4CCN(CCN5CCN(c6ccc(C7CCC(=O)NC7=O)cc6)CC5)CC4)c3)c3nccn23)c(F)cc1F (stereo not drawn) [Compound 52, 3-(4-(4-(2-(4-(4-((5-(2,4-difluoro-5-methylphenyl)imdazo [1,2-a]pyrazin-8-yl)(methyl)amino)-1H-pyrazol-1-yl)piperidin-1-yl)ethyl)piperazin-1-yl)phenyl) piperidine-2,6-dione] |
| 11 | 22 | 0.9 | Cc1cc(-c2cnc(Nc3cnn(C4CCN(CCN5CCN(c6ccc(C7CCC(=O)NC7=O)c(F)c6)CC5)CC4)c3)c3nccn23)c(F)cc1F (stereo not drawn) [Compound 53, 3-(4-(4-(2-(4-(4-((5-(2,4-difluoro-5-methylphenyl)imdazo [1,2-a]pyrazin-8-yl)amino)-1H-pyrazol-1-yl)piperidin-1-yl)ethyl)piperazin-1-yl)-2-fluorophenyl)piper idine-2,6-dione] |
| 15 | 28 | 10 | Cc1cc(-c2cnc(Nc3cnn(C4CCN(CCN5CCN(c6ccc(C7CCC(=O)NC7=O)c(Cl)c6)CC5)CC4)c3)c3nccn23)c(F)cc1F (stereo not drawn) [Compound 54, 3-(2-chloro-4-(4-(2-(4-(4-((5-(2,4-difluoro-5-methylphenyl)imdazo [1,2-a]pyrazin-8-yl)amino)-1H-pyrazol-1-yl)piperidin-1-yl)ethyl)piperazin-1-yl)phenyl) piperidine-2,6-dione] |
| 64 | 84 | 1100 | Cc1cc(-c2cnc(Nc3cnn(C4CCN(CCN5CCN(c6ccc(C7CCC(=O)N(C)C7=O)cc6)CC5)CC4)c3)c3nccn23)c(F)cc1F (stereo not drawn) [Compound 55, 3-(4-(4-(2-(4-(4-((5-(2,4-difluoro-5-methylphenyl)imdazo [1,2-a]pyrazin-8-yl)amino)-1H-pyrazol-1-yl)piperidin-1-yl)ethyl)piperazin-1-yl)phenyl)-1-methylpiperidine-2,6-dione] |
| 8.6 | 23 | 0.75 | Cc1cc(-c2cnc(Nc3cnn(C4CCN(CCN5[C@@H](C)CN(c6ccc(C7CCC(=O)NC7=O)cc6)C[C@@H]5C)CC4)c3)c3nccn23)c(F)cc1F (stereo partly drawn) [Compound 56, 3-(4-((3S,5S)-4-(2-(4-(4-((5-(2,4-difluoro-5-methylphenyl)imdazo [1,2-a]pyrazin-8-yl)amino)-1H-pyrazol-1-yl)piperidin-1-yl)ethyl)-3,5-dimethylpiperazin-1-yl)phenyl) piperidine-2,6-dione] |
| 8.72 | 24 | 5.7 | Cc1cc(-c2cnc(Nc3cnn([C@H]4CC[C@H](CCN5CCN(c6ccc(C7CCC(=O)NC7=O)cc6)C[C@@H]5C)CC4)c3)c3nccn23)c(F)cc1F (stereo partly drawn) [Compound 57, 3-(4-((S)-4-(2-((trans)-4-(4-((5-(2,4-difluoro-5-methylphenyl)imidazo[1,2-a]pyrazin-8-yl)amino)-1H-pyrazol-1-yl)cyclohexyl)ethyl)-3-methylpiperazin-1-yl)phenyl) piperidine-2,6-dione] |
